From patent publication US8268990B2, “Compounds” (AstraZeneca AB, priority 2007, dated 2012)

Molecular target: T1, Recombinant human TLR7 (Homo sapiens, UniProt Q9NYK1)
T1 construct: expressed in transfected cells; host or cells: HEK293 cell line stably expressing the pNiFty2-SEAP reporter plasmid; TLR7 in vector pUNO, blasticidin selection
T1 sequence (Q9NYK1 27-1049): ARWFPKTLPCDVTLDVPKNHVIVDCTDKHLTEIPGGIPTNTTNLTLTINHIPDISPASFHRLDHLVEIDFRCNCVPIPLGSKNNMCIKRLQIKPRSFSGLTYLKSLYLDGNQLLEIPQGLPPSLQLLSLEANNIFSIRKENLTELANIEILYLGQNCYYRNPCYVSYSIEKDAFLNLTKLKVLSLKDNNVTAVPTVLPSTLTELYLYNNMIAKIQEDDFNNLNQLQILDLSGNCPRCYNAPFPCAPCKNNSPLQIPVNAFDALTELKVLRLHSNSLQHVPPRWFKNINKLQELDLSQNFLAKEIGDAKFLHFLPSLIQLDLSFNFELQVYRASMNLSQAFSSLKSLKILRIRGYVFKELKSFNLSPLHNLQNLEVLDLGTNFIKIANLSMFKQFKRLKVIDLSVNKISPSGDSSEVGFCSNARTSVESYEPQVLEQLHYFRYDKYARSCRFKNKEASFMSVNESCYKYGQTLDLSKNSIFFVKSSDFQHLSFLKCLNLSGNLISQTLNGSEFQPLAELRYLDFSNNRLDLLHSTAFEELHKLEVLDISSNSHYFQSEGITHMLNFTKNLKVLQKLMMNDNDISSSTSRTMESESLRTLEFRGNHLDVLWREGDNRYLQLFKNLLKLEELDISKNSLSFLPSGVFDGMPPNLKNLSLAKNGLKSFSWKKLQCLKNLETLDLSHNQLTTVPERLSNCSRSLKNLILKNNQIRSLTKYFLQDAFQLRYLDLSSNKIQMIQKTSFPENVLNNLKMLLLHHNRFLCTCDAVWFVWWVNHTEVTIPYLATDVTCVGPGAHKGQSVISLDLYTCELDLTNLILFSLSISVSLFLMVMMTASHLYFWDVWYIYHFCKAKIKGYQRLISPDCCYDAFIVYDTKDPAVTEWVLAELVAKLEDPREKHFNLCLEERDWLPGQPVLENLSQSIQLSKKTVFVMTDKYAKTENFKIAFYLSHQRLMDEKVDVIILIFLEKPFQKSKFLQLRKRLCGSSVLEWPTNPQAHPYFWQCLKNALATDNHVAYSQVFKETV
Experiment: Human TLR7 Assay (SEAP reporter);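 further: SEAP driven by an NFkB-responsive composite promoter, pEC50 read at half of each compound's own maximal SEAP induction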
Format: cell-based
Conditions: HEK293 cell line stably expressing human TLR7 and pNiFty2-SEAP reporter; SEAP induction after overnight incubation at 37° C., 0.1% (v/v) DMSO
Description: Recombinant human TLR7 was stably expressed in a HEK293 cell line already stably expressing the pNiFty2-SEAP reporter plasmid; integration of the reporter gene was maintained by selection with the antibiotic zeocin. The most common variant sequence of human TLR7 (represented by the EMBL sequence AF240467) was cloned into the mammalian cell expression vector pUNO and transfected into this reporter cell-line. Transfectants with stable expression were selected using the antibiotic blasticidin. In this reporter cell-line, expression of secreted alkaline phosphatase (SEAP) is controlled by an NFkB/ELAM-1 composite promoter comprising five NFkB sites combined with the proximal ELAM-1 promoter. TLR signaling leads to the translocation of NFkB and activation of the promoter results in expression of the SEAP gene. TLR7-specific activation was assessed by determining the level of SEAP produced following overnight incubation of the cells at 37° C. with the standard compound in the presence of 0.1% (v/v) dimethylsulfoxide (DMSO). Concentration dependent induction of SEAP production by compounds was expressed as the concentration of compound which produced half of the maximal level of SEAP induction for that compound (pEC50).

EC50 [nM] | SMILES
50.1 | CCC[C@@H](CCO)Nc1nc(N)nc(C)c1Cc1ccc(CC(=O)OCCCCN2CCCC2)cc1O [Example 78, (S)-4-(Pyrrolidin-1-yl)butyl 2-(4-((2-amino-4-(1-hydroxyhexan-3-ylamino)-6-methylpyrimidin-5-yl)methyl)-3-hydroxyphenyl)acetate]
126 | CCCCNc1nc(N)nc(C)c1Cc1ccc(CC(=O)OCCCCN2CCCC2)cc1O [Example 79, 4-(Pyrrolidin-1-yl)butyl 2-(4-((2-amino-4-(butylamino)-6-methylpyrimidin-5-yl)methyl)-3-hydroxyphenyl)acetate]
1000 | CC[C@H](O)CNc1nc(N)nc(C)c1Cc1ccc(CC(=O)OCC2CCN(C)CC2)cc1 [Example 81, (S)-(1-Methylpiperidin-4-yl)methyl 2-(4-((2-amino-4-(2-hydroxybutylamino)-6-methylpyrimidin-5-yl)methyl)phenyl)acetate]
100 | CCCCNc1nc(N)nc(C)c1Cc1ccc(CC(=O)OCCCCN2CCCC2)cc1 [Example 82, 4-(Pyrrolidin-1-yl)butyl 2-(4-((2-amino-4-(butylamino)-6-methylpyrimidin-5-yl)methyl)phenyl)acetate]
20 | CCCCNc1nc(N)nc(C)c1Cc1cc(CC(=O)OCC2CCN(C)CC2)ccc1OC [Example 83, (1-Methylpiperidin-4-yl)methyl 2-(3-((2-amino-4-(butylamino)-6-methylpyrimidin-5-yl)methyl)-4-methoxyphenyl)acetate]
316 | CCCCCNc1nc(N)nc(C)c1Cc1cccc(CC(=O)OCCCCN2CCCC2)c1 [Example 84, 4-(Pyrrolidin-1-yl)butyl 2-(3-((2-amino-4-methyl-6-(pentylamino)pyrimidin-5-yl)methyl)phenyl)acetate]
501 | CCCCCNc1nc(N)nc(C)c1Cc1cccc(CC(=O)OCC2CCN(C)CC2)c1 [Example 85, (1-Methylpiperidin-4-yl)methyl 2-(3-((2-amino-4-methyl-6-(pentylamino)pyrimidin-5-yl)methyl)phenyl)acetate]
200 | CCC[C@@H](CCO)Nc1nc(N)nc(C)c1Cc1ccc(CC(=O)OCCCCN(C)C)cc1F [Example 86, (S)-4-(Dimethylamino)butyl 2-(4-((2-amino-4-(1-hydroxyhexan-3-ylamino)-6-methylpyrimidin-5-yl)methyl)-3-fluorophenyl)acetate]
25.1 | CCC[C@@H](CCO)Nc1nc(N)nc(C)c1Cc1ccc(CC(=O)OCCCCN2CCN(C)CC2)cc1F [Example 87, (S)-4-(4-Methylpiperazin-1-yl)butyl 2-(4-((2-amino-4-(1-hydroxyhexan-3-ylamino)-6-methylpyrimidin-5-yl)methyl)-3-fluorophenyl)acetate]
100 | CCC[C@@H](CO)Nc1nc(N)nc(C)c1Cc1ccc(CC(=O)OC)cc1O [Example 88, (S)-Methyl 2-(4-((2-amino-4-(1-hydroxypentan-2-ylamino)-6-methylpyrimidin-5-yl)methyl)-3-hydroxyphenyl)acetate]
50.1 | CCCCNc1nc(N)nc(C)c1Cc1ccc(CC(=O)OCCO)cc1OC [Example 89, 2-Hydroxyethyl 2-(4-((2-amino-4-(butylamino)-6-methylpyrimidin-5-yl)methyl)-3-methoxyphenyl)acetate]
25.1 | CCCCNc1nc(N)nc(C)c1Cc1ccc(CC(=O)OCCCCN2CCC(N(C)C)CC2)cc1OC [Example 90, 4-(4-(Dimethylamino)piperidin-1-yl)butyl 2-(4-((2-amino-4-(butylamino)-6-methylpyrimidin-5-yl)methyl)-3-methoxyphenyl)acetate]
20 | CCCCNc1nc(N)nc(C)c1Cc1ccc(CC(=O)OCCCCO)cc1OC [Example 91, 4-Hydroxybutyl 2-(4-((2-amino-4-(butylamino)-6-methylpyrimidin-5-yl)methyl)-3-methoxyphenyl)acetate]
20 | CCCCNc1nc(N)nc(C)c1Cc1ccc(CC(=O)OCCCS(C)(=O)=O)cc1OC [Example 92, 3-(Methylsulfonyl)propyl 2-(4-((2-amino-4-(butylamino)-6-methylpyrimidin-5-yl)methyl)-3-methoxyphenyl)acetate]
20 | CCCCNc1nc(N)nc(C)c1Cc1ccc(CC(=O)OCCCO)cc1OC [Example 93, 3-Hydroxypropyl 2-(4-((2-amino-4-(butylamino)-6-methylpyrimidin-5-yl)methyl)-3-methoxyphenyl)acetate]
126 | CCC[C@@H](CCO)Nc1nc(N)nc(C)c1Cc1ccc(CC(=O)OCCCCN(C)C)cc1 [Example 94, (S)-4-(Dimethylamino)butyl 2-(4-((2-amino-4-(1-hydroxyhexan-3-ylamino)-6-methylpyrimidin-5-yl)methyl)phenyl)acetate]
63.1 | CCCCNc1nc(N)nc(C)c1Sc1ccc(CC(=O)OCC2CCN(C)CC2)cc1 [Example 95, (1-Methylpiperidin-4-yl)methyl 2-(4-(2-amino-4-(butylamino)-6-methylpyrimidin-5-ylthio)phenyl)acetate]
50.1 | CCCCNc1nc(N)nc(C)c1Sc1ccc(CC(=O)OCCCCN2CCCC2)cc1 [Example 96, 4-(Pyrrolidin-1-yl)butyl 2-(4-(2-amino-4-(butylamino)-6-methylpyrimidin-5-ylthio)phenyl)acetate]
31.6 | CCCCNc1nc(N)nc(C)c1Cc1cc(CC(=O)OCCCCN(C)C)ccc1OC [Example 97, 4-(Dimethylamino)butyl 2-(3-((2-amino-4-(butylamino)-6-methylpyrimidin-5-yl)methyl)-4-methoxyphenyl)acetate]
50.1 | CCCCNc1nc(N)nc(C)c1Cc1cc(CC(=O)OC)ccc1OC [Example 98, Methyl 2-(3-((2-amino-4-(butylamino)-6-methylpyrimidin-5-yl)methyl)-4-methoxyphenyl)acetate]
79.4 | CCCCNc1nc(N)nc(C)c1Cc1cc(CC(=O)OC)ccc1O [Example 99, Methyl 2-(3-((2-amino-4-(butylamino)-6-methylpyrimidin-5-yl)methyl)-4-hydroxyphenyl)acetate]
31.6 | CCC[C@@H](CCO)Nc1nc(N)nc(C)c1Cc1ccc(CC(=O)OCCC2CCN(C)CC2)cc1F [Example 100, (S)-2-(1-Methylpiperidin-4-yl)ethyl 2-(4-((2-amino-4-(1-hydroxyhexan-3-ylamino)-6-methylpyrimidin-5-yl)methyl)-3-fluorophenyl)acetate]
39.8 | CCCCNc1nc(N)nc(C)c1Cc1ccc(CC(=O)OCCc2scnc2C)cc1OC [Example 101, 2-(4-Methylthiazol-5-yl)ethyl 2-(4-((2-amino-4-(butylamino)-6-methylpyrimidin-5-yl)methyl)-3-methoxyphenyl)acetate]
100 | CCCCNc1nc(N)nc(C)c1Cc1ccc(CC(=O)OCCCCN(C)C)cc1O [Example 102, 4-(Dimethylamino)butyl 2-(4-((2-amino-4-(butylamino)-6-methylpyrimidin-5-yl)methyl)-3-hydroxyphenyl)acetate]
126 | CCCCNc1nc(N)nc(C)c1Cc1ccc(CC(=O)OCC2CCN(C)CC2)cc1O [Example 103, (1-Methylpiperidin-4-yl)methyl 2-(4-((2-amino-4-(butylamino)-6-methylpyrimidin-5-yl)methyl)-3-hydroxyphenyl)acetate]
